26 molecules from US20070254910A1, “CHEMICAL COMPOUNDS” (priority 2004, published 2007) can be followed below.

For this test, the system named is HIV. The test is described as follows: HOS HIV anti-infectivity assay (strain not stated). To be noted: Human immunodeficiency virus 1, HOS HIV anti-infectivity assay; read-out: Activity Level. The format is cell-based. As for the experimental part:
Compounds were profiled against two HIV-1 viruses, the M-tropic (CCR5 utilizing) Ba-L strain and the T-tropic (CXCR4 utilizing) IIIB strain. Both viruses were propagated in human peripheral blood lymphocytes. Compounds were tested for there ability to block infection of the HOS cell line (expressing hCXCR4/hCCR5/hCD4/pHIV-LTR-luciferase) by either HIV-1 Ba-L or HIV-1 IIIB. Compound cytotoxicity was also examined in the absence of virus addition.
HOS cells (expressing hCXCR4/hCCR5/hCD4/pHIV-LTR-luciferase) were harvested and diluted in Dulbeccos modified Eagles media supplemented with 2% FCS and non-essential amino acid to a concentration of 60,000 cells/ml. The cells were plated into 96-well plates (100 ul per well) and the plates were placed in a tissue culture incubator (37° C.; 5% CO2/95% air) for a period of 24 h.
Subsequently, 50 ul of the desired drug solution (4 times the final concentration) was added to each well and the plates were returned to the tissue culture incubator (37° C.; 5% CO2/95% air) for 1 h. Following this incubation 50 ul of diluted virus was added to each well (approximately 2 million RLU per well of virus). The plates were returned to the tissue culture incubator (37° C.; 5% CO2/95% air) and were incubated for a further 96 h.
Following this incubation the endpoint for the virally infected cultures was quantified following addition of Steady-Glo Luciferase assay system reagent (Promega, Madison, Wis.). Cell viability or non-infected cultures was measured using a CellTiter-Glo luminescent cell viability assay system (Promega, Madison, Wis.). All luminescent readouts are performed on a Topcount luminescence detector (Packard, Meridien, Conn.).

On to `CN1CCN(c2cccc3nc(CN(C)C4CCCc5cccnc54)c(CO)n23)CC1` (centres unmarked) [Example 20, (5-(4-Methyl-1-piperazinyl)-2-{[methyl(5,6,7,8-tetrahydro-8-quinolinyl)amino]methyl}imidazo[1,2-a]pyridin-3-yl)methanol], for which the IC50 was below 100 nM.
For the molecule `COc1ccc([C@H](C)N(Cc2nc3cccc(N4CCN(C)CC4)n3c2CO)[C@H]2CCCc3cccnc32)cc1` [Example 22, [2-({{(1S)-1-[4-(Methyloxy)phenyl]ethyl}[(8S)-5,6,7,8-tetrahydro-8-quinolinyl]amino}methyl)-5-(4-methyl-1-piperazinyl)imidazo[1,2-a]pyridin-3-yl]methanol], the IC50 was below 100 nM.
With `CN1CCN(c2cccc3nc(CN(C)[C@H]4CCCc5cccnc54)c(CO)n23)CC1` [Example 25, [5-(4-Methyl-1-piperazinyl)-2-({methyl[(8S)-5,6,7,8-tetrahydro-8-quinolinyl]amino}methyl)imidazo[1,2-a]pyridin-3-yl]methanol], the IC50 is below 100 nM.
For `CN(C)CCN(C)c1cccc2nc(CN(C)[C@H]3CCCc4cccnc43)c(CO)n12` [Example 28, [5-[[2-(Dimethylamino)ethyl](methyl)amino]-2-({methyl[(8S)-5,6,7,8-tetrahydro-8-quinolinyl]amino}methyl)imidazo[1,2-a]pyridin-3-yl]methanol], the IC50 is below 100 nM.
Consider `CN1CCN(c2cccc3nc(CN(C)C4CCCCc5cccnc54)c(CO)n23)CC1` (centres unmarked) [Example 30, (5-(4-Methyl-1-piperazinyl)-2-{[methyl(6,7,8,9-tetrahydro-5H-cyclohepta[b]pyridin-9-yl)amino]methyl}imidazo[1,2-a]pyridin-3-yl)methanol], for which the IC50 is below 100 nM.
Then `CCN(Cc1nc2cccc(N3CCN(C)CC3)n2c1CO)[C@H]1CCCc2cccnc21` [Example 32, [2-({Ethyl[(8S)-5,6,7,8-tetrahydro-8-quinolinyl]amino}methyl)-5-(4-methyl-1-piperazinyl)imidazo[1,2-a]pyridin-3-yl]methanol], with below 100 nM; and `CC(C)N(Cc1nc2cccc(N3CCN(C)CC3)n2c1CO)[C@H]1CCCc2cccnc21` [Example 34, [2-({(1-Methylethyl)[(8S)-5,6,7,8-tetrahydro-8-quinolinyl]amino}methyl)-5-(4-methyl-1-piperazinyl)imidazo[1,2-a]pyridin-3-yl]methanol], with below 100 nM; and `CCCN(Cc1nc2cccc(N3CCN(C)CC3)n2c1CO)[C@H]1CCCc2cccnc21` [Example 36, [5-(4-Methyl-1-piperazinyl)-2-({propyl[(8S)-5,6,7,8-tetrahydro-8-quinolinyl]amino}methyl)imidazo[1,2-a]pyridin-3-yl]methanol], with below 100 nM.
Regarding `CN1CCN(c2cccc3nc(CN(CC4CC4)[C@H]4CCCc5cccnc54)c(CO)n23)CC1` [Example 38, [2-({(Cyclopropylmethyl)[(8S)-5,6,7,8-tetrahydro-8-quinolinyl]amino}methyl)-5-(4-methyl-1-piperazinyl)imidazo[1,2-a]pyridin-3-yl]methanol], the IC50 was below 100 nM.
Then `CN1CCN(c2cccc3nc(CN(Cc4ccccc4)[C@H]4CCCc5cccnc54)c(CO)n23)CC1` [Example 40, [5-(4-Methyl-1-piperazinyl)-2-({(phenylmethyl)[(8S)-5,6,7,8-tetrahydro-8-quinolinyl]amino}methyl)imidazo[1,2-a]pyridin-3-yl]methanol], with below 100 nM; and `CN1CCN(c2cccc3nc(CN(Cc4ccc(C(F)(F)F)cc4)[C@H]4CCCc5cccnc54)c(CO)n23)CC1` [Example 42, {5-(4-Methyl-1-piperazinyl)-2-[((8S)-5,6,7,8-tetrahydro-8-quinolinyl{[4-(trifluoromethyl)phenyl]methyl}amino)methyl]imidazo[1,2-a]pyridin-3-yl}methanol], with below 100 nM.
For `CN(Cc1nc2cccc(N3CCN4CCCC4C3)n2c1CO)[C@H]1CCCc2cccnc21` (stereo partly drawn) [Example 44, [5-(Hexahydropyrrolo[1,2-a]pyrazin-2(1H)-yl)-2-({methyl[(8S)-5,6,7,8-tetrahydro-8-quinolinyl]amino}methyl)imidazo[1,2-a]pyridin-3-yl]methanol], the IC50 is below 100 nM.
With `CN(C)[C@@H]1CCN(c2cccc3nc(CN(C)[C@H]4CCCc5cccnc54)c(CO)n23)C1` [Example 46, [5-[(3R)-3-(Dimethylamino)-1-pyrrolidinyl]-2-({methyl[(8S)-5,6,7,8-tetrahydro-8-quinolinyl]amino}methyl)imidazo[1,2-a]pyridin-3-yl]methanol], the IC50 was below 100 nM.
Then `CN(Cc1nc2cccc(N3CCCNCC3)n2c1CO)[C@H]1CCCc2cccnc21` [Example 48, [5-(Hexahydro-1H-1,4-diazepin-1-yl)-2-({methyl[(8S)-5,6,7,8-tetrahydro-8-quinolinyl]amino}methyl)imidazo[1,2-a]pyridin-3-yl]methanol], with below 100 nM; and `CN1CCCN(c2cccc3nc(CN(C)[C@H]4CCCc5cccnc54)c(CO)n23)CC1` [Example 50, [5-(4-Methylhexahydro-1H-1,4-diazepin-1-yl)-2-({methyl[(8S)-5,6,7,8-tetrahydro-8-quinolinyl]amino}methyl)imidazo[1,2-a]pyridin-3-yl]methanol], with below 100 nM.
Take `CN1CCC(N(C)c2cccc3nc(CN(C)[C@H]4CCCc5cccnc54)c(CO)n23)C1` (stereo partly drawn) [Example 52, [5-[Methyl(1-methyl-3-pyrrolidinyl)amino]-2-({methyl[(8S)-5,6,7,8-tetrahydro-8-quinolinyl]amino}methyl)imidazo[1,2-a]pyridin-3-yl]methanol]: the IC50 was below 100 nM.
`CCN1CCN(c2cccc3nc(CN(C)[C@H]4CCCc5cccnc54)c(CO)n23)CC1` [Example 54, [5-(4-Ethyl-1-piperazinyl)-2-({methyl[(8S)-5,6,7,8-tetrahydro-8-quinolinyl]amino}methyl)imidazo[1,2-a]pyridin-3-yl]methanol]: the IC50 is below 100 nM.
With `CC(C)N1CCN(c2cccc3nc(CN(C)[C@H]4CCCc5cccnc54)c(CO)n23)CC1` [Example 56, [5-[4-(1-Methylethyl)-1-piperazinyl]-2-({methyl[(8S)-5,6,7,8-tetrahydro-8-quinolinyl]amino}methyl)imidazo[1,2-a]pyridin-3-yl]methanol], the IC50 was below 100 nM.
As for `CN(C)[C@H]1CCN(c2cccc3nc(CN(C)[C@H]4CCCc5cccnc54)c(CO)n23)C1` [Example 58, [5-[(3S)-3-(Dimethylamino)-1-pyrrolidinyl]-2-({methyl[(8S)-5,6,7,8-tetrahydro-8-quinolinyl]amino}methyl)imidazo[1,2-a]pyridin-3-yl]methanol], the IC50 is below 100 nM.
As for `CN(Cc1nc2cccc(N3CC[C@@H](N)C3)n2c1CO)[C@H]1CCCc2cccnc21` [Example 60, [5-[(3R)-3-Amino-1-pyrrolidinyl]-2-({methyl[(8S)-5,6,7,8-tetrahydro-8-quinolinyl]amino}methyl)imidazo[1,2-a]pyridin-3-yl]methanol], the IC50 was below 100 nM.
For the molecule `CN[C@@H]1CCN(c2cccc3nc(CN(C)[C@H]4CCCc5cccnc54)c(CO)n23)C1` [Example 63, [5-[(3R)-3-(Methylamino)-1-pyrrolidinyl]-2-({methyl[(8S)-5,6,7,8-tetrahydro-8-quinolinyl]amino}methyl)imidazo[1,2-a]pyridin-3-yl]methanol], the IC50 is below 100 nM.
`CCN(Cc1nc2cccc(N3CC[C@@H](N(C)C)C3)n2c1CO)[C@H]1CCCc2cccnc21` [Example 66, [5-[(3R)-3-(Dimethylamino)-1-pyrrolidinyl]-2-({ethyl[(8S)-5,6,7,8-tetrahydro-8-quinolinyl]amino}methyl)imidazo[1,2-a]pyridin-3-yl]methanol]: the IC50 was below 100 nM.
Then `CCCN(Cc1nc2cccc(N3CC[C@@H](N(C)C)C3)n2c1CO)[C@H]1CCCc2cccnc21` [Example 68, [5-[(3R)-3-(Dimethylamino)-1-pyrrolidinyl]-2-({propyl[(8S)-5,6,7,8-tetrahydro-8-quinolinyl]amino}methyl)imidazo[1,2-a]pyridin-3-yl]methanol], with below 100 nM.
Regarding `CC(C)N(Cc1nc2cccc(N3CC[C@@H](N(C)C)C3)n2c1CO)[C@H]1CCCc2cccnc21` [Example 70, [5-[(3R)-3-(Dimethylamino)-1-pyrrolidinyl]-2-({(1-methylethyl)[(8S)-5,6,7,8-tetrahydro-8-quinolinyl]amino}methyl)imidazo[1,2-a]pyridin-3-yl]methanol], the IC50 was below 100 nM.
As to `CN(C)[C@@H]1CCN(c2cccc3nc(CN(CC4CC4)[C@H]4CCCc5cccnc54)c(CO)n23)C1` [Example 72, {2-({(Cyclopropylmethyl)[(8S)-5,6,7,8-tetrahydro-8-quinolinyl]amino}methyl)-5-[(3R)-3-(dimethylamino)-1-pyrrolidinyl]imidazo[1,2-a]pyridin-3-yl}methanol], the IC50 is below 100 nM.
Regarding `CN(Cc1nc2cccc(N3CCC(N)CC3)n2c1CO)[C@H]1CCCc2cccnc21` [Example 76, [5-(4-Amino-1-piperidinyl)-2-({methyl[(8S)-5,6,7,8-tetrahydro-8-quinolinyl]amino}methyl)imidazo[1,2-a]pyridin-3-yl]methanol], the IC50 was below 100 nM.
